Reference: patent US20250049027A1, “PLANT PATHOGEN COMPOSITION” (Robjulz Pty. Ltd., priority 2021, published 2025)

How the values were obtained:
Phytophthora palmivora = test: In vitro poison agar test, mycelial growth on corn meal agar; assay type: cell-based; details: concluded from the in vitro data; ppm of BAC
Description: In vitro tests were performed against Phytophthora palmivora, the pathogen responsible for pod rot of cocoa, stem canker of durian and rubber, and foot rot of pepper, using a poison agar method as discussed below.
A stock solution was prepared with (a) BAC (50% w/v in water, 180 mL), (b) STPP (25 g), and (c) BL8 (120 mL), with enough water to provide a total volume of 1 L.
(§1) Corn meal agar (CMA, 17 g) medium (Oxoid™, Thermo Scientific) was added to distilled or deionized water (1 L) in accordance with the manufacturer's instruction before autoclaving at 121° C. for 20 minutes and cooling to 50-55° C. in a water bath. To the resulting mixture was added the stock solution described above, in accordance with the amounts in Table 3, or sterile distilled water (control sample). Five replications for each treatment were prepared, and the experiment was carried out using a completely randomized design (CRD).
(§2) Mycelial growth in each treatment was recorded within seven days after incubation at room temperature with natural dark/light cycle in reference to the growth of the control. Percent inhibition of diameter growth (% PIDG) was calculated as follows:
[formula] • where: dc=average diameter of fungal colony in the control plate, and • dt=average diameter of fungal colony in the treatment plate. […]

[1] = tested on: Fusarium oxysporum f. sp. cubense TR4 (FocTR4); test: In vitro poison agar test, mycelial growth on potato dextrose agar; assay type: cell-based; details: concluded from the in vitro data; ppm of BAC
Description: In vitro tests were performed against Fusarium oxysporum f. sp. cubense TR4 (FocTR4), the fungal pathogen responsible for Panama wilt of banana, using a poison agar method as discussed below.
as §1, with “Potato dextrose” for “Corn meal”, “(PDA, 39” for “(CMA, 17”, “(Difco™)” for “(Oxoid™, Thermo Scientific)”, “of Example 3,” for “described above,”, “5,” for “3,”
as §2, with “described above. Analyses of statistical data were carried out using the standard analysis of variance (ANOVA) procedure using SAS software (version 9.2).” for “follows:”

P. palmivora [2] = test: In vivo testing using cocoa pods, pre-treated then inoculated; parameters: species or system Phytophthora palmivora
Description: The efficacy of a fungicidal composition of the present invention was tested against P. palmivora. Healthy, green cocoa pods were picked, prior to artificial inoculation with Phytophthora isolate M5. One highly virulent P. palmivora isolate (MI 5 from Sabah) with 5 replicates (pods) were used as the control.
Each pod was washed carefully three times with sterile distilled water, the surface was disinfected for 2 minutes in 75% ethanol, and pods were air-dried at room temperature (25±2° C.). Different concentrations of the composition of the present invention (0-540 ppm) were prepared as for Examples 3 and 4, using the composition described in Example 1 which contained a polymeric film-forming agent, and spread on the pod surface to cover the whole pod. Cocoa pods with sterile distilled water were included as a negative control. After spreading, the pre-treated pods were inoculated with a 12 mm plug of 5-day old culture of P. palmivora grown on CMA plates by placing over the intact skin at the centre of each cocoa pod (see FIGS. 3A-I). The resulting pods were kept in moist plastic trays, covered with black polythene sheets to maintain moisture level, and incubated at 25±2° C. in the dark for seven days.

P. palmivora [3] = test: In vivo testing using durian fruit, pre-treated then inoculated; parameters: species or system Phytophthora palmivora; details: concluded from the durian fruit data; ppm of BAC
Description: Healthy durian fruits were harvested carefully from a durian plantation, for artificial inoculation with Phytophthora isolate DB4. Untreated durian fruits with five replicates were used as the control. Fungicidal compositions were prepared, as for Example 5, then applied to the fruit surface. Durian fruits with sterile distilled water were included as a negative control. The pre-treated fruits were inoculated with a 12 mm plug of a 5-day old culture of P. palmivora grown on CMA plates by placing over the intact skin at the centre of each fruit. The resulting durian fruits were kept in moist plastic trays, covered with black polythene sheets to maintain moisture level, and incubated at 25±2° C. in the dark for seven days. Measurement of lesions were made at seven days after inoculation.

[4] = tested on: Fusarium oxysporum f. sp. cubense TR4 (FocTR4); test: In vivo preventative testing using banana plants, soil application before inoculation; details: concluded from the banana plant data; ppm of BAC
Description: The efficacy of a fungicidal composition of the present invention was tested against Fusarium oxysporum f. sp. cubense TR4 (FocTR4), the fungal pathogen responsible for Panama wilt of banana, for use as a preventative.
Banana seedlings (cv. Berangan, 2-month-old) were obtained from Malaysian Agricultural Research and Development Institute (MARDI). Soil was prepared in polybags and sterilized using a large capacity autoclave at the Institute of Plantation Sciences (IKP). Seedlings were allowed to acclimatize in a greenhouse for approximately two months, reaching a height of about 50 cm, before being inoculated with FocTR4. Plants were watered with a dripping system, and fertilized with NPK.
The seedlings were used in a randomized complete block design (RCBD) with seven treatments: healthy control, disease control, four concentrations (100 ppm, 300 ppm, 500 ppm and 700 ppm), and a commercial fungicide. For the four concentrations tested, compositions were either a test solution as described in Example 2, or a polymer control (as described in Example 1 with acrylamide polymer omitted). […]
Four replications were used for each treatment, with four plants per replicate. […] Seedlings were assessed after inoculation to measure disease incidence (DI) and disease severity (DSI). […] DSI was measured by estimating the proportion of plant surface area was infected. […]

Substance: benzalkonium chloride [BAC]
- effective concentration for controlling an oomycete such as Phytophthora (Phytophthora palmivora): 15-750 ppm
- effective concentration for controlling a fungus such as Fusarium [1]: 500-2000 ppm
- pods showing fungal infection around plug (P. palmivora [2]; cocoa pods treated with 18 ppm BAC, FIG. 3B): four out of five pods show fungal infection around plug
- pods showing fungal infection around plug (P. palmivora [2]; cocoa pods treated with 36 ppm BAC, FIG. 3C): four out of five pods show fungal infection around plug
- pods showing fungal infection around plug (P. palmivora [2]; cocoa pods treated with 54 ppm BAC, FIG. 3D): three out of five pods show fungal infection around plug
- pods showing fungal infection around plug (P. palmivora [2]; cocoa pods treated with 72 ppm BAC, FIG. 3E): two out of five pods show fungal infection around plug
- pods showing fungal infection around plug (P. palmivora [2]; cocoa pods treated with 90, 180, 360 and 540 ppm BAC, FIG. 3F-I): no fungal infection around plug
- effective concentration for controlling an oomycete such as P. palmivora when applied to the fruit (P. palmivora [2]; concluded from the cocoa pod data, ppm of BAC): 15-750 ppm
- effective concentration for controlling an oomycete such as P. palmivora when applied to the fruit (P. palmivora [3]): 15-750 ppm
- effective concentration for controlling a fungus such as Fusarium, when applied to the soil [4]: 500-2000 ppm
